Several values for one entry are separate records, joined by “and”; a condition that tells them apart may be missing. Identical values can stand only once. Activity calls are given as the source filed them. The rule behind the calls is not given here.
Tests used:
[1] = V. cholerae BH1578 luminescence activators, luxS cqsA deficient, dose response confirmation, dry powder (AID 651816); settings: V. cholerae BH1578 luxCDABE luminescence, 6 h; at 80 µM (top of the series)
[2] = system: V. cholerae BH1578 luxCDABE luminescence, 6 h; experiment: as above

SMILES	activation [1]	AC40 [2]
O=C(Cc1ccc(-c2ccccc2)cc1)NC1CCCCC1	7.99% (inactive)	
CCn1nnnc1NCc1cccc(OC)c1	3.31% (inactive)	
O=C(Cc1cccc(F)c1)NC1CCCC1	0.665% (inactive)	
CCn1nnnc1NCc1ccc(N2CCCCC2)cc1		121 nM
CC(C)NC(=O)Cc1ccc(-c2ccccc2)cc1		6210 nM
O=C(Cc1ccc(-c2ccccc2)cc1)NC1CCOCC1		2890 nM
Cc1ccccc1CC(=O)NC1CCCC1	0.039% (inactive)	
Fc1ccc(Cn2nnnc2NCc2ccc(N3CCCC3)cc2)cc1	0.053% (inactive)	
CC(C)c1ccc(CNc2nnnn2C)cc1		3260 nM
CCn1nnnc1NCc1cccc(N2CCCC2)c1		504 nM
CCC(CC)NC(=O)Cc1ccc(-c2ccccc2)cc1		5370 nM
Cc1ccc(Cn2nnnc2NCc2ccc(N3CCCC3)cc2)cc1	0.022% (inactive)	
O=C(Cc1ccccc1C(F)(F)F)NC1CCCC1	-0.032% (inactive)	
CCc1ccccc1NCc1ccc(N2CCCC2)cc1	0.047% (inactive)	
O=C(Cc1ccccc1OC(F)(F)F)NC1CCCC1	-0.008% (inactive)	
CCC(C)NC(=O)Cc1ccc(-c2ccccc2)cc1 (stereo not given)		4820 nM
O=C(Cc1ccc(-c2ccccc2)cc1)NC1CCCC1		409 nM and 756 nM
CCn1nnc(CCc2ccc(N3CCCC3)cc2)n1	0.033% (inactive)	
CCn1nnnc1CCc1ccc(N2CCCC2)cc1		1680 nM
CS(=O)(=O)c1ccc(CC(=O)NC2CCCC2)cc1	-0.008% (inactive)	

SMILES	activation [1]	AC40 [2]
CCCCn1nnnc1NCc1ccc(N2CCCC2)cc1		5660 nM
COc1ccc(CC(=O)NC2CCCC2)cc1	0.353% (inactive)	
O=C(Cc1ccc(-c2ccccc2)cc1)NC1CCC1		510 nM
CCn1nnnc1NCc1ccc(C(C)C)cc1		89.1 nM and 143 nM
CCn1nccc1NCc1ccc(N2CCCC2)cc1	0.056% (inactive)	
CCn1nccc1/N=C/c1ccc(N2CCCC2)cc1	0.02% (inactive)	
CCn1nnnc1NCc1ccccc1N1CCCC1	-0.011% (inactive)	
O=C(NCc1ccc(-c2ccccc2)cc1)C1CCCC1	0.19% (inactive)	
Cn1nnnc1NCc1ccc(N2CCCC2)cc1		956 nM
CCCn1nnnc1NCc1ccc(C(C)C)cc1		793 nM
O=C(Cc1ccccc1F)NC1CCCC1	0.028% (inactive)	
O=C(Cc1cccc(OC(F)(F)F)c1)NC1CCCC1	0.099% (inactive)	
O=C(Cc1ccccc1Cl)NC1CCCC1	-0.009% (inactive)	
CCn1nnnc1NCc1ccc(N2CCCC2)cc1		20.9 nM
c1ccc(Cn2nnnc2NCc2ccc(N3CCCC3)cc2)cc1	0.055% (inactive)	
CCn1nnc(NCc2ccc(C)cc2)n1	0.015% (inactive)	
CCCn1nnnc1NCc1ccc(N2CCCC2)cc1		60.8 nM
CCCn1nnnc1NCc1ccccc1Cl	-0.011% (inactive)	
c1ccc(-n2nnnc2NCc2ccc(N3CCCC3)cc2)cc1	0.051% (inactive)	
c1ccc(Cn2nnc(NCc3ccc(N4CCCC4)cc3)n2)cc1	0.04% (inactive)	
